Data published in patent publication US5691348A, “Pyridyl imidazole derivatives and processes for the preparation thereof” (Daewoo Electronics Co., Ltd., priority 1994, dated 1997).
One block for each compound: values may come before it.

How the values were obtained:
[1] = system: angiotensin II receptor; test: Angiotensin II receptor binding assay ([3H] angiotensin II); parameters: species or system rat (Sprague-Dawley adrenal cortex/medulla; Wistar liver); conditions: 25° C., 60 minutes, test concentration not given
Experimental: 1. Angiotensin II receptor binding assay
In accordance with the procedure disclosed in Chiu, A. T. et al., Eur. J. Pharm., 157, 13(1981), a ligand marked with a radioisotope was reacted with an angiotensin II receptor and the reactant was filtered with a glass fiber to remove unreacted ligand. After washing the filter, the amount of the remaining isotope was measured to determine the binding activity of the ligand, as described below in detail.
Sprague-Dawley rats and Wistar rats of 250 to 350 g (from The Korea Research Institute of Chemical Technology) were tested and the test procedures were carried out at 4° C., unless otherwise specified. Adrenal gland was separated from the Sprague-Dawley rats (liver, in the case of Wistar rats) into cortex and medulla. The separated adrenal cortex and medulla were washed with a sucrose buffer solution (0.2M sucrose, 1 mM EDTA, 10 mM Tris, Ph 7.2) and homogenized in the same buffer solution by using a Teflon pestle and a Brinkmann homogenizer. The homogenates were centrifuged at 3,000× g for 10 minutes to remove precipitates and further centrifuged at 12,000× g for 13 minutes. The final supernatants were centrifuged at 102,000× g for 1 hour to obtain precipitates, which were washed with a Tris buffer solution (50 mM Tris, 5 mM MgCl2, pH 7.2) and recentrifuged at 102,000× g for 1 hour. The resulting precipitates were immediately processed at the following step or stored at -70° C.
The precipitates were suspended in a Tris buffer solution. The amount of protein was determined by using a Bio-Rad DC protein analyzing kit and the protein concentration was adjusted to the amounts of: 0.2 to 0.3 mg/ml (Sprague-Dawley rat: adrenal cortex), 1.5 to 2.0 mg/ml (Sprague-Dawley rat: adrenal medulla), and 1.5 to 2.0 mg/ml (Wistar rat: liver). To the suspension, bovine serum albumin(BSA) was added to a concentration of 0.25 wt % and the resultant was immediately processed at the following step or stored at -70° C.
50 μl (based on ligand) of [^3 H] angiotensin II (NEN, NET-446) and 10 μl of each of the test compounds with various concentrations were added to the buffer solution (50 mM Tris (pH 7.2), 5 mM MgCl2, 0.25% BSA) to adjust the final volume to be 0.5 ml. 100 μl of the receptor suspension was added thereto and the resulting solution was reacted for 60 minutes while stirring in a water bath at 25° C. 3 ml of cold buffer solution for analysis was added to cease the reaction. The isotope which was bound to the receptor was isolated from the resultant by using Brandel Cell Harvester System with Whatman glass fiber GF/C. After washing the filter, the radioactivity of the filter was determined by using a liquid scintillation counter. Binding inhibition(%) of the test compound was calculated as follows:
Binding Inhibition(%)=[{(T-B)-(S-B)}/(T-B)]×100
wherein T is the radioactivity (cpm) of the reaction product untreated with the test compound, S is the radioactivity (cpm) of the reaction product treated with the test compound, and B is the radioactivity (cpm) of blank test.

[2] = Metabolite analysis: enzyme digestion test with rat liver microsome, HPLC; type: in vitro ADME; conditions: 100 μM, 1 hour at 37° C.; for metabolite from the enzymatic digestion: rat liver microsome, HPLC (FIG. 1)
Experimental: Enzyme digestion test was executed in order to detect the metabolite of the test compound in vivo.
500 μg of NADP^+, 11 U of glucose-6-phosphate dehydrogenase and 200 μg of rat liver microsome were added to 1 ml of 0.1M phosphate buffer (pH 7.4), and to the resulting solution was added glucose-6-phosphate to a concentration of 10 mM. The resultant was incubated for 1 minute at 37° C. and added with each of the present compound (Example 3) and the Merck compound to a concentration of 100 μM. The mixture was incubated for 1 hour at 37° C., and then was added with 2 ml of dichloromethan to cease the reaction. The resultant was extracted with dichloromethan and the extract was evaporated to obtain a residue. The reside was analyzed using HPLC after dissolving in a mobile phase of the HPLC.
Column: Nucleosil phenyl column (0.46×25 cm, 5 μM)
Mobile phase: acetonitrile (50 mM, pH 5.0; 35:65, v/v)
FIG. 1 is a HPLC chart showing the result of the enzyme digestion test of the Merck compound and the compound of Example 3.

[3] = system: renal hypertensive rat; test: Blood pressure lowering effect in renal hypertension; type: in vivo, Sprague-Dawley rat; conditions: Amount 3 mg; intravenous or oral (not specified)
Text: (§1) To induce renal hypertension, left renal artery of 4 week-old male Sprague-Dawley rat (from The Korea Research Institute of Chemical Technology) was ligated. The rat was anesthetized with ether and the surgical region on the left abdomen of the rat was shaved, disinfected, and then incised about 1 cm vertically. The renal artery near abdominal aorta was isolated carefully from surrounding tissues and veins, and then ligated completely with a suture (4/0 sterile surgical silk). The muscular strata and skin of the surgical area were sutured with a suture (4/0 sterile surgical silk). The surgical region was disinfected to prevent infection and thereafter, 200 to 250 mg/kg/day of cephazolin sodium was injected intramuscularly for 2 days. 6 to 8 days after the ligation, rats showing systolic pressure of more than 180 mmHg were selected for renal hypertension test. The blood pressure was determined by a tail-cuff method from the tail under unanesthetized condition (Gerold, M. et al., Arzneimittel-Forsch., 18, 1285(1968)).
(§2) Each of the compounds to be tested was administered intravenously or orally into the renal hypertensive rat. The blood pressure of the rat was determined by direct method (Chiu, A. T. et al., J. Pharmacol. Exp. Ther., 250, 867(1989)) using a catheter. The rat was anesthetized with ketamine hydrochloride (125 mg/kg, i.p.) and a catheter was filled with saline and inserted into a carotid artery and […]. The surgical area was sutured with a metal clip. The rat was relaxed at least 3 hours and the catheter in the carotid artery was adapted to an isotec pressure transducer to determine the blood pressure and heart rate with a physiograph (Linearcorder WR3310). After the blood pressure was stabilized, the test compound was administered intravenously or orally. For intravenous administration, the administered volume and washing volume were 1.0 ml/kg and 0.2 ml, respectively. The blood pressure and heart rate were measured in regular intervals up to 24 hours after the administration of the test compound and compared with those measured after the administration of the control compound Losartan.
(§3) The test compound was dissolved in 0.05N KOH for intravenous administration and suspended in Tween 80 for oral administration.

[4] = system: unanesthetized dogs; test: Blood pressure variation with time in unanesthetized dogs; type: in vivo, dog; conditions: 1.0 mg, oral
Experimental: (§4) A number of dog was fed freely in a feeding room and those weighing 7 to 12 kg in good health were selected regardless of their gender.
(§5) The test dog was anesthetized with 30 mg/kg of pentobarbital sodium by intravenous injection and the left femoral artery and femoral vein were separated carefully. Silicone catheter, specially prepared and filled with saline treated with heparin (1,000 IU/ml), was cannulated into the blood vessels. After the surgery, the dog was constrained to measure the blood pressure continuously with Gould 2000 physiograph adapted to a Grass P23XL pressure transducer; and the heart rate was monitored with ECG/Biotacho amplifier. The dog was tested at least 2 days after the surgery.
(§6) 10 mg/kg of furosemide was injected intramuscularly 18 hours (in case of intravenous injection, 2 hours) before the beginning of the test (administration of the test compound) to improve the activity of renin in blood plasma. After the injection of furosemide, neither food nor water was provided. […] The blood pressure and heart rate were measured up to 8 hours after the administration of each test compound.

[5] = system: unanesthetized dogs; test: Maximum blood pressure lowering effect in unanesthetized dogs at different amounts; type: in vivo, dog
Experimental: as §4, §5
10 mg/kg of furosemide was injected intramuscularly 18 hours (in case of intravenous injection, 2 hours) before the beginning of the test (administration of the test compound) to improve the activity of renin in blood plasma. After the injection of furosemide, neither food nor water was provided. The test compound was suspended in Tween 80 and administered in an amount of 20 mg/kg orally. The blood pressure and heart rate were measured up to 8 hours after the administration of each test compound.
The maximum blood pressure lowering effect of the present compounds and the control compounds were determined in different amounts of administration using the same method as (i) and the results are given in Table 4.

[6] = system: renal hypertensive rat; test: Blood pressure lowering effect with respect to dose (renal hypertensive rats); type: in vivo, Sprague-Dawley rat; conditions: oral
Text: as §1, §2, §3
The present compounds, Losartan(Dup 753) and the Merck compound were administrated orally to rats in 10, 3 and 1 mg/kg under the same condition as in (ii) and the blood pressure lowering effect was determined.

[7] = system: furosemide-administered dogs; test: Duration of action in furosemide-administered dogs; type: in vivo, dog; conditions: 0.3 mg oral
Experimental: as §4, §5, §6
The compound of Example 1 and the Merck compound were administered orally to the furosemide-administrated dogs as in test 3(i), and blood pressure lowering effect was measured with time.

[8] = system: renal hypertensive rats; test: Duration of action in renal hypertensive rats; type: in vivo, Sprague-Dawley rat; conditions: 3 mg/kg oral
Text: as §1, §2, §3
The compound of Example 1 and the Merck compound were tested using the hypertensive rats of test 2(i). 3 mg/kg of each compound was administered orally and blood pressure lowering effect with time was determined to measure the duration of action of the compounds.

- Binding Inhibition [1]: 86.4%
SMILES: CCCCc1nc2cc(-c3cccc[n+]3[O-])c(C)nc2n1Cc1ccc(-c2ccccc2-c2nn[nH]n2)cc1 [Example 3, 2-Butyl-5-methyl-6-(1-oxy-pyridin-2-yl)-3-[2'-(1H-tetrazol-5-yl)-biphenyl-4-ylmethyl]-3H-imidazo[4,5-b]pyridine]
- stability against the enzymatic digestion ([2]; in contrast with the Merck compound): good stability against the enzymatic digestion
- metabolite from the enzymatic digestion [2]: has no metabolite from the enzymatic digestion
- Maximum Blood Pressure Lowering Effect [3]: -50%
- Maximum Blood Pressure Lowering Effect ([4]; 0.5 hr): -16.2%
- Maximum Blood Pressure Lowering Effect ([4]; 1 hr): -23.8%
- Maximum Blood Pressure Lowering Effect ([4]; 2 hr): -30.0%
- Maximum Blood Pressure Lowering Effect ([4]; 4 hr): -32.7%
- Maximum Blood Pressure Lowering Effect ([4]; 6 hr): -35.5%
- Maximum Blood Pressure Lowering Effect ([4]; 8 hr): -33.0%
- Maximum Blood Pressure Lowering Effect ([5]; 0.1 mg/kg): -10%
- Maximum Blood Pressure Lowering Effect ([5]; 0.3 mg/kg): -11%
- Maximum Blood Pressure Lowering Effect ([5]; 1 mg/kg): -37%
- Maximum Blood Pressure Lowering Effect ([6]; 1 mg/kg): -20%

- metabolite from the enzymatic digestion [2]: has a metabolite
SMILES: CCc1nc2c(C)cc(C)nc2n1Cc1ccc(-c2ccccc2-c2nnn[nH]2)cc1 [Merck Compound, reference compound]
- Maximum Blood Pressure Lowering Effect ([7]; 0 min): 0.0%
- Maximum Blood Pressure Lowering Effect ([7]; 10 min): -5.0%
- Maximum Blood Pressure Lowering Effect ([7]; 20 min): -12.2%
- Maximum Blood Pressure Lowering Effect ([7]; 30 min): -14.4%
- Maximum Blood Pressure Lowering Effect ([7]; 60 min): -20.1%
- Maximum Blood Pressure Lowering Effect ([7]; 90 min): -24.4%
- Maximum Blood Pressure Lowering Effect ([7]; 120 min): -19.1%
- Maximum Blood Pressure Lowering Effect ([7]; 150 min): -24.2%
- Maximum Blood Pressure Lowering Effect ([7]; 180 min): -18.9%
- Maximum Blood Pressure Lowering Effect ([7]; 210 min): -17.0%
- Maximum Blood Pressure Lowering Effect ([7]; 240 min): -17.0%
- Maximum Blood Pressure Lowering Effect ([7]; 270 min): -13.4%
- Maximum Blood Pressure Lowering Effect ([7]; 300 min): -14.9%
- Maximum Blood Pressure Lowering Effect ([7]; 330 min): -15.6%
- Maximum Blood Pressure Lowering Effect ([7]; 360 min): -15.6%
- Maximum Blood Pressure Lowering Effect ([7]; 390 min): -11.4%
- Maximum Blood Pressure Lowering Effect ([7]; 420 min): -10.7%
- Maximum Blood Pressure Lowering Effect ([7]; 450 min): -11.4%
- Maximum Blood Pressure Lowering Effect ([7]; 480 min): -13.8%
- time for which the maximum blood pressure lowering effect lasted after the administration ([7]; Table 6, dogs): 2 to 3 h
- Maximum Blood Pressure Lowering Effect ([8]; 0 min): 0%
- Maximum Blood Pressure Lowering Effect ([8]; 10 min): -15%
- Maximum Blood Pressure Lowering Effect ([8]; 20 min): -27%
- Maximum Blood Pressure Lowering Effect ([8]; 30 min): -28%
- Maximum Blood Pressure Lowering Effect ([8]; 60 min): -26%
- Maximum Blood Pressure Lowering Effect ([8]; 90 min): -28%
- Maximum Blood Pressure Lowering Effect ([8]; 120 min): -25%
- Maximum Blood Pressure Lowering Effect ([8]; 240 min): -40%
- Maximum Blood Pressure Lowering Effect ([8]; 360 min): -36%
- Maximum Blood Pressure Lowering Effect ([8]; 1320 min): -35%
- Maximum Blood Pressure Lowering Effect ([8]; 1440 min): -40%
- Maximum Blood Pressure Lowering Effect ([5]; 0.1 mg/kg): -20%
- Maximum Blood Pressure Lowering Effect ([5]; 0.3 mg/kg): -24%
- Maximum Blood Pressure Lowering Effect ([6]; 3 mg/kg): -40%
